Reference: US10836763B2, “5 to 7 membered heterocyclic amides as JAK inhibitors” (priority 2018, dated 2020)

Columns and labels:
[1] = tested on: TSLP-evoked TARC release in human peripheral blood mononuclear cells; test: Inhibition of TSLP-evoked TARC release in human peripheral blood mononuclear cells; type: cell-based; settings: PBMC from 3 to 5 donors, TSLP 10 ng/mL, 48 hours, TARC ELISA, read-out: pIC50 ± st. dev., inhibition of TSLP-evoked TARC release (converted)
Excerpt: Assay 4: Inhibition of TSLP-Evoked TARC Release in Human Peripheral Blood Mononuclear Cells
Thymic stromal lymphopoietin (TSLP) and thymus and activation-regulated chemokine (TARC) are overexpressed in asthmatic airways, and correlate with disease severity. In the lungs, TSLP may be released by bronchial epithelial cells in response to allergens and viral infections. TSLP signals through an IL-7Rα/TSLPR heterodimer found in a broad range of tissues and cell types, including epithelial cells, endothelial cells, neutrophils, macrophages, and mast cells. The binding of TSLP to its receptor induces a conformational change that activates JAK1 and JAK2 to phosphorylate various transcription factors, including STAT3 and STAT5. In immune cells, this triggers a cascade of intracellular events that result in cell proliferation, anti-apoptosis, dendritic cell migration, and production of Th2 cytokines and chemokines. In peripheral blood mononuclear cells (PBMC), TSLP has a proinflammatory effect by activating myeloid dendritic cells to attract and stimulate T cells, a process mediated by the chemoattractant TARC.
The potencies of the test compounds were measured for inhibition of TARC release.
PBMC aliquots (previously isolated from whole blood and frozen in aliquots at −80° C.) from 3 to 5 donors were thawed at 37° C. and added dropwise to 40 mL pre-warmed, sterile-filtered, complete RPMI media in 50 mL Falcon tubes. Cells were pelleted and resuspended in complete media at 2.24×10^6 cells/mL. Cells were seeded at […] (190,000 cells) per well in a tissue culture treated 96-well flat bottom microplate. Cells were allowed to rest for 1 hour at 37° C. with 5% CO2.
Compounds were received as 10 mM stock solutions in DMSO. 3.7-fold serial dilutions were performed to generate 9 concentrations of test compound in DMSO at 300× the final assay test concentration. […] After the 1 hour rest period, 95 µL of 2× compound was added to each well of PBMC, for a final assay concentration range of 33.33 μM to […]. 95 μL of 0.2% DMSO in complete media was added to the untreated control wells. Cells were pre-treated with compound for 1 hour at 37° C. with 5% CO2 prior to stimulation.
Recombinant human TSLP protein was reconstituted at 10 μg/mL in sterile DPBS with 0.1% BSA and stored in aliquots at −20° C. Immediately prior to use, an aliquot was thawed and prepared at 20× the final assay concentration in complete media. 10 μL of 20×TSLP was added to each well of PBMC, for a final assay concentration of 10 ng/mL. 10 μL of complete media was added to the unstimulated control wells. Cells were stimulated in the presence of compound for 48 hours at 37° C. with 5% CO2.
Following stimulation, the cell culture supernatants were harvested and TARC levels were detected by enzyme-linked immunosorbent assay (ELISA), using Human CCL17/TARC Quantikine ELISA Kit (R&D Systems # DDN00) according to the manufacturer's instructions.
For dose response analysis, the log [test compound (M)] was plotted versus the percent response values for each donor, and IC50 values were determined using a nonlinear regression analysis with GraphPad Prism Software using the 4-parameter sigmoidal dose-response algorithm with variable slope. Data are expressed as mean pIC50 (negative decadic logarithm IC50) values calculated from pIC50 values of individual donors and rounded to one decimal place.

[2] = tested on: IL-2 stimulated STAT5 phosphorylation in Tall-1 human T cell line; test: Inhibition of IL-2 stimulated pSTAT5 in Tall-1 T cells; type: cell-based; settings: TALL-1, 0.5 h, IL-2 300 ng/mL, 30 min, pSTAT5 AlphaLisa, read-out: Tall-1 pIC50 (converted)
Protocol: Assay 2: Inhibition of IL-2 Stimulated pSTAT5 in Tall-1 T Cells
The potency of test compounds for inhibition of interleukin-2 (IL-2) stimulated STAT5 phosphorylation was measured in the Tall-1 human T cell line (DSMZ) using AlphaLisa.
Phosphorylated STAT5 was measured via the AlphaLISA SureFire Ultra pSTAT5 (Tyr694/699) kit (PerkinElmer).
Compounds were serially diluted in DMSO and dispensed acoustically to empty wells. Assay media (phenol red-free DMEM (Life Technologies) supplemented with 10% FBS (ATCC)) was dispensed (4 μL/well) and plates shaken at 900 rpm for 10 mins. Cells were seeded at 45,000 cells/well in assay media (4 μL/well), and incubated at 37° C., 5% CO2 for 1 hour, followed by the addition of IL-2 (R&D Systems; final concentration 300 ng/mL) in pre-warmed assay media (4 μL) for 30 minutes. […] The lysate was shaken at 900 rpm for 10 minutes at room temperature (RT). Phosphorylated STAT5 was measured via the pSTAT5 AlphaLisa kit (PerkinElmer). Freshly prepared acceptor bead mixture was dispensed onto lysate (5 μL) under green filtered <100 lux light. Plates were shaken at 900 rpm for 2 mins, briefly spun down, and incubated for 2 hrs at RT in the dark. Donor beads were dispensed (5 μL) under green filtered <100 lux light. Plates were shaken at 900 rpm for 2 minutes, briefly spun down, and incubated overnight at RT in the dark. Luminescence was measured with excitation at 689 nm and emission at 570 nm using an EnVision plate reader (PerkinElmer) under green filtered <100 lux light.
To determine the inhibitory potency of test compounds in response to IL-2, the average emission intensity of beads bound to pSTAT5 was measured in a human T cell line. IC50 values were determined from analysis of the inhibition curves of signal intensity versus compound concentration. Data are expressed as pIC50 (negative decadic logarithm IC50) values (mean±standard deviation).

[3] = molecular target: Tyk2 (Homo sapiens (Human), UniProt P29597); test: Biochemical JAK kinase assay (LanthaScreen), Tyk2; settings: ATP at Km 10 μM; pIC50 converted with Cheng-Prusoff
Protocol: (§1) Assay 1: Biochemical JAK Kinase Assays
(§2) A panel of four LanthaScreen JAK biochemical assays (JAK1, 2, 3 and Tyk2) were carried in a common kinase reaction buffer (50 mM HEPES, pH 7.5, 0.01% Brij-35, 10 mM MgCl2, and 1 mM EGTA). Recombinant GST-tagged JAK enzymes and a GFP-tagged STAT1 peptide substrate were obtained from Life Technologies.
(§3) Serially diluted compounds were pre-incubated with each of the four JAK enzymes and the substrate in white 384-well microplates (Corning) at ambient temperature for 1 h. ATP was subsequently added to initiate the kinase reactions in 10 μL total volume, with 1% DMSO. […] Kinase reactions were allowed to proceed for 1 hour at ambient temperature before a 10 μL preparation of EDTA (10 mM final concentration) and Tb-anti-pSTAT1 (pTyr701) antibody (Life Technologies, 2 nM final concentration) in TR-FRET dilution buffer (Life Technologies) was added. The plates were allowed to incubate at ambient temperature for 1 h before being read on the EnVision reader (Perkin Elmer). Emission ratio signals (520 nm/495 nm) were recorded and utilized to calculate the percent inhibition values based on DMSO and background controls.
(§4) For dose-response analysis, percent inhibition data were plotted vs. compound concentrations, and IC50 values were determined from a 4-parameter robust fit model with the Prism software (GraphPad Software). Results were expressed as pIC50 (negative logarithm of IC50) and subsequently converted to pKi (negative logarithm of dissociation constant, Ki) using the Cheng-Prusoff equation.

[4] = molecular target: JAK1 (Homo sapiens (Human), UniProt P23458); test: Biochemical JAK kinase assay (LanthaScreen), JAK1; settings: ATP at Km 25 μM; pIC50 converted with Cheng-Prusoff
Protocol: as §1, §2, §3, §4

JAK1, sequence (P23458 whole entry): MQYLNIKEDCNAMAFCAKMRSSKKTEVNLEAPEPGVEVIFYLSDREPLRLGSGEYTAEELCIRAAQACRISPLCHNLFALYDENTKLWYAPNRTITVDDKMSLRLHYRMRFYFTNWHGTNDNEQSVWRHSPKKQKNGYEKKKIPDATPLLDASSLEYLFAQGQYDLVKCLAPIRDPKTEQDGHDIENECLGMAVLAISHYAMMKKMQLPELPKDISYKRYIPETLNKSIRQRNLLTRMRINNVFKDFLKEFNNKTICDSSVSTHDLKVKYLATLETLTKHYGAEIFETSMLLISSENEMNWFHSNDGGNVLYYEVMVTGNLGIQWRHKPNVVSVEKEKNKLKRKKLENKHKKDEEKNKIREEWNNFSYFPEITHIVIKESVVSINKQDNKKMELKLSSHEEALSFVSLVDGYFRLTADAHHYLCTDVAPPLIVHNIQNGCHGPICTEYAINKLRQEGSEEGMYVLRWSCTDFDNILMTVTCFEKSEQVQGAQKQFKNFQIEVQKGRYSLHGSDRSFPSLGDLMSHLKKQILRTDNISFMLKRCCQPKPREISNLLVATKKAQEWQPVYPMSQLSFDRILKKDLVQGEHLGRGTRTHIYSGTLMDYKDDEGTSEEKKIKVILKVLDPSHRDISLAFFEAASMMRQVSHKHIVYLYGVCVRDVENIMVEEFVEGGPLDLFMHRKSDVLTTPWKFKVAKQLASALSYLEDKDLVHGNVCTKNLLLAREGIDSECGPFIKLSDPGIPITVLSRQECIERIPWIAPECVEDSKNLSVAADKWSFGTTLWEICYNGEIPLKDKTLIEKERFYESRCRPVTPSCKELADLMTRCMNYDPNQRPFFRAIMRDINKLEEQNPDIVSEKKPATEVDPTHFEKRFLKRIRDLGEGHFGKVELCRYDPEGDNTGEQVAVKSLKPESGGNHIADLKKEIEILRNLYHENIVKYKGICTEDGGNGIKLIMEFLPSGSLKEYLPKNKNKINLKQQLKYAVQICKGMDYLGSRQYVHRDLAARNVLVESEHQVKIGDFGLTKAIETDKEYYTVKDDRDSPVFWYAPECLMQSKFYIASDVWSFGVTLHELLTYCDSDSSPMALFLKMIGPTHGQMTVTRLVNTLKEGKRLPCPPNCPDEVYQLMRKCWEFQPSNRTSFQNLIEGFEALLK
Tyk2, sequence (P29597 whole entry): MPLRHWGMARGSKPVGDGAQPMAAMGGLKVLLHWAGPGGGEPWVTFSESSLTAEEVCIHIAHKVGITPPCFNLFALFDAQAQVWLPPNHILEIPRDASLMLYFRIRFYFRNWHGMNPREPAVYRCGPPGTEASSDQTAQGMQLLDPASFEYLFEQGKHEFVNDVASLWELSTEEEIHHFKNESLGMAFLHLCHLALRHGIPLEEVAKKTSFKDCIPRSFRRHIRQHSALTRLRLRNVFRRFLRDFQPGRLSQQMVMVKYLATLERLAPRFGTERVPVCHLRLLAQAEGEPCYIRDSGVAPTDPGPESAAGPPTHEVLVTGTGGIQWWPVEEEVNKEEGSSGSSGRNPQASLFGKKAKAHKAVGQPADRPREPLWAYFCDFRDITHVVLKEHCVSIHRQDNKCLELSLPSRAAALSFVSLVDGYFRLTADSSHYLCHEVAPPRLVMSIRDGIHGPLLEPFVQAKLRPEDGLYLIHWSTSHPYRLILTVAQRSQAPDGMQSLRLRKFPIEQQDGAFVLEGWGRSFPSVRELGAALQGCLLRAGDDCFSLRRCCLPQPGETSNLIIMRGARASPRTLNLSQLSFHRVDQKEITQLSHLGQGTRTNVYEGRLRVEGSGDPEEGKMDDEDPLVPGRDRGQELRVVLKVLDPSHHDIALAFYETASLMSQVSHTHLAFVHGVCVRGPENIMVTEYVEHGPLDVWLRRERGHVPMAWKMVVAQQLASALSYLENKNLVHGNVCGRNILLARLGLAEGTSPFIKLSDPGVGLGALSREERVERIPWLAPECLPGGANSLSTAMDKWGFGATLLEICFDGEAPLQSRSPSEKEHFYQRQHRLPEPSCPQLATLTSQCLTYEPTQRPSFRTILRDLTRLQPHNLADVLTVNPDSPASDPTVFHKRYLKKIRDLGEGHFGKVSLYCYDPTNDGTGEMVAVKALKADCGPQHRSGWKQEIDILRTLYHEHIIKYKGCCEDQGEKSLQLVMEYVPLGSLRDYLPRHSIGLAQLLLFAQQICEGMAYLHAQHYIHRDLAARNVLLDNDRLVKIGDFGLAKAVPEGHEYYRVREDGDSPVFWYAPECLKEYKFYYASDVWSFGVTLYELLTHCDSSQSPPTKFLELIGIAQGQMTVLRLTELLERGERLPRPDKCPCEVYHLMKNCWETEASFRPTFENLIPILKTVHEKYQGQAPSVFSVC

CCc1cc(O)c(F)cc1-c1ccc2c(-c3nc4c([nH]3)CN(C)[C@H](C(=O)N3CCN(CCO)C[C@H]3C)C4)n[nH]c2c1 [Compound C-5, ((S)-2-(6-(2-ethyl-5-fluoro-4-hydroxyphenyl)-1H-indazol-3-yl)-5-methyl-4,5,6,7-tetrahydro-3H-imidazo[4,5-c]pyridin-6-yl)((R)-4-(2-hydroxyethyl)-2-methyl-piperazin-1-yl)methanone, reference compound]
IC50 [1]: 0.0501 µM | IC50 [2]: 0.00251 µM | Tyk2 pKi [3]: 9.5 | JAK1 pKi [4]: 10.1
